This passage reports pest or weed control results from US12077503B2, “Substituted cyclic amides and their use as herbicides” (FMC CORPORATION, priority 2015, dated 2024).

Holding throughout (experiment): Test A preemergence
Common to all, as to format: in vivo

The subject of one experiment is Kochia (Kochia scoparia). The conditions noted are these: Bassia scoparia, pre-emergence, 240 h; for pest or weed control at 125 g/ha: 125 g ai/ha; for pest or weed control at 500 g/ha: 500 g ai/ha. A digest of the protocol: (§1)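 Ratings of 0 (no effect) to 100 (complete control) come from visual comparison with untreated controls roughly 10 d after treatment. Test chemicals, formulated in a non-phytotoxic solvent mixture with surfactant, were applied either as a preemergence directed soil spray on seeded soil or postemergence to one- to two-leaf plants 2 to 10 cm tall.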

For experiment [1], the system named is barnyardgrass (Echinochloa crus-galli). The conditions noted are these: Echinochloa crus-galli, pre-emergence, 240 h; for pest or weed control at 125 g/ha: 125 g ai/ha; for pest or weed control at 500 g/ha: 500 g ai/ha. The essentials: as §1
In experiment [2] the test system is giant foxtail (Setaria faberii). The following applies: Setaria faberi, pre-emergence, 240 h; for pest or weed control at 125 g/ha: 125 g ai/ha; for pest or weed control at 500 g/ha: 500 g ai/ha. The essentials:
as §1

Experiment [3] concerns ragweed (common ragweed, Ambrosia elatior). The following applies: Ambrosia artemisiifolia, pre-emergence, 240 h; for pest or weed control at 125 g/ha: 125 g ai/ha; for pest or weed control at 500 g/ha: 500 g ai/ha. A digest of the protocol:
as §1

Experiment [4] has as its system ryegrass, Italian (Italian ryegrass, Lolium multiflorum). The conditions noted are these: Lolium multiflorum, pre-emergence, 240 h; for pest or weed control at 125 g/ha: 125 g ai/ha; for pest or weed control at 500 g/ha: 500 g ai/ha. The essentials:
as §1

The mark [5] stands for this setting: preemergence, 0 to 100 scale where 0 is no effect and 100 is complete control, approx. 10 d, read-out: Kochia plant response rating.
Setting [6] is: preemergence, 0 to 100 scale where 0 is no effect and 100 is complete control, approx. 10 d, read-out: Barnyardgrass plant response rating.
Setting [7] is: preemergence, visual injury rating about 10 d after treatment, 0 to 100 scale (0 no effect, 100 complete control), read-out: Barnyardgrass plant response rating.
Where [8] appears, read: preemergence, 0 to 100 scale where 0 is no effect and 100 is complete control, approx. 10 d, read-out: Foxtail, Giant plant response rating.
[9] abbreviates: preemergence, 0 to 100 scale where 0 is no effect and 100 is complete control, approx. 10 d, read-out: Ragweed plant response rating.
[10] abbreviates: preemergence, 0 to 100 scale where 0 is no effect and 100 is complete control, approx. 10 d, read-out: Ryegrass, Italian plant response rating.
[11] abbreviates: preemergence, 0 to 100 scale where 0 is no effect and 100 is complete control, read-out: Kochia plant response rating.
The mark [12] stands for this setting: Preemergence, visual injury vs untreated controls after approximately 10 d, read-out: Kochia plant response rating (0 to 100 scale where 0 is no effect and 100 is complete control).
[13] abbreviates: preemergence, 0 to 100 scale where 0 is no effect and 100 is complete control, read-out: Barnyardgrass plant response rating.
Where [14] appears, read: Preemergence, visual injury vs untreated controls after approximately 10 d, read-out: Barnyardgrass plant response rating (0 to 100 scale where 0 is no effect and 100 is complete control).
Where [15] appears, read: preemergence, 0 to 100 scale where 0 is no effect and 100 is complete control, read-out: Foxtail, Giant plant response rating.
[16] abbreviates: Preemergence, visual injury vs untreated controls after approximately 10 d, read-out: Foxtail, Giant plant response rating (0 to 100 scale where 0 is no effect and 100 is complete control).
The mark [17] stands for this setting: preemergence, 0 to 100 scale where 0 is no effect and 100 is complete control, read-out: Ragweed plant response rating.
[18] abbreviates: Preemergence, visual injury vs untreated controls after approximately 10 d, read-out: Ragweed plant response rating (0 to 100 scale where 0 is no effect and 100 is complete control).
Setting [19] is: preemergence, 0 to 100 scale where 0 is no effect and 100 is complete control, read-out: Ryegrass, Italian plant response rating.
The mark [20] stands for this setting: Preemergence, visual injury vs untreated controls after approximately 10 d, read-out: Ryegrass, Italian plant response rating (0 to 100 scale where 0 is no effect and 100 is complete control).
[21] abbreviates: preemergence, visual injury rating, 0 to 100 scale where 0 is no effect and 100 is complete control, approximately 10 d, read-out: Kochia plant response rating.
[22] abbreviates: preemergence, visual injury rating, 0 to 100 scale where 0 is no effect and 100 is complete control, approximately 10 d, read-out: Barnyardgrass plant response rating.
[23] abbreviates: preemergence, visual injury rating, 0 to 100 scale where 0 is no effect and 100 is complete control, approximately 10 d, read-out: Foxtail, Giant plant response rating.
Where [24] appears, read: preemergence, visual injury rating, 0 to 100 scale where 0 is no effect and 100 is complete control, approximately 10 d, read-out: Ragweed plant response rating.
Where [25] appears, read: preemergence, visual injury rating, 0 to 100 scale where 0 is no effect and 100 is complete control, approximately 10 d, read-out: Ryegrass, Italian plant response rating.

Structures are written as SMILES. Read-outs that look alike come from different tables or passages of the source.

For the molecule `C/C=C/N1C[C@@H](c2cccc(C(F)(F)F)c2)[C@H](C(=O)Nc2ccccc2F)C1=O` (racemic) [Compound 1094], the pest or weed control at 125 g/ha with Kochia (Kochia scoparia) (setting [5]) was 0%; in experiment [1] (setting [6]), 0%; in experiment [2] (setting [8]), 90%; in experiment [3] (setting [9]), 0%; in experiment [4] (setting [10]) it was 0%. For the same molecule, the pest or weed control at 500 g/ha in the experiment with Kochia (Kochia scoparia) (preemergence, visual injury rating about 10 d after treatment, 0 to 100 scale (0 no effect, 100 complete control), read-out: Kochia plant response rating) was found to be 0%; in experiment [1] (setting [7]) it was 80%; in experiment [2] (preemergence, visual injury rating about 10 d after treatment, 0 to 100 scale (0 no effect, 100 complete control), read-out: Foxtail, Giant plant response rating) it was 100%; in experiment [3] (preemergence, visual injury rating about 10 d after treatment, 0 to 100 scale (0 no effect, 100 complete control), read-out: Ragweed plant response rating), 0%; in experiment [4] (preemergence, visual injury rating about 10 d after treatment, 0 to 100 scale (0 no effect, 100 complete control), read-out: Ryegrass, Italian plant response rating), 0%.
Regarding `Cc1cc(C)cc([C@H]2CN(C)C(=O)[C@@H]2C(=O)Nc2ccccc2C(F)(F)F)c1` [Compound 912], the pest or weed control at 125 g/ha came to 60% in the experiment on Kochia (Kochia scoparia) (setting [11]); 80% in experiment [1] (setting [13]); 90% in experiment [2] (setting [15]); 0% in experiment [3] (setting [17]); 40% in experiment [4] (setting [19]). Also, the pest or weed control at 500 g/ha is 70% in the experiment on Kochia (Kochia scoparia) (setting [12]); 90% in experiment [1] (setting [14]); 100% in experiment [2] (setting [16]); 0% in experiment [3] (setting [18]); 50% in experiment [4] (setting [20]).
With `Cc1c(F)cccc1NC(=O)[C@H]1C(=O)N(C)C[C@@H]1c1ccc(C(F)(F)F)nc1` [Compound 1197], the pest or weed control at 125 g/ha in the experiment with Kochia (Kochia scoparia) (setting [21]) stood at 100%; in experiment [1] (setting [22]), 100%; in experiment [2] (setting [23]), 100%; in experiment [3] (setting [24]) it was 100%; in experiment [4] (setting [25]), 70%. The pest or weed control at 500 g/ha in the experiment on Kochia (Kochia scoparia) (setting [11]) is 100%; in experiment [1] (setting [13]), 100%; in experiment [2] (setting [15]) it was 100%; in experiment [3] (setting [17]), 100%; in experiment [4] (setting [19]), 70%.
As to `COc1cc([C@H]2CN(C)C(=O)[C@@H]2C(=O)Nc2cccc(F)c2F)cc(OC)c1OC` [Compound 1210], the pest or weed control at 125 g/ha in the experiment with Kochia (Kochia scoparia) (setting [21]) worked out at 0%; in experiment [1] (setting [22]), 90%; in experiment [2] (setting [23]), 100%; in experiment [3] (setting [24]), 0%; in experiment [4] (setting [25]) it was 20%. The pest or weed control at 500 g/ha with Kochia (Kochia scoparia) (setting [11]) came out at 10%; in experiment [1] (setting [13]), 100%; in experiment [2] (setting [15]), 100%; in experiment [3] (setting [17]), 0%; in experiment [4] (setting [19]) it was 50%.
For the molecule `CN1C[C@H](c2cscn2)[C@@H](C(=O)Nc2cccc(F)c2F)C1=O` [Compound 1113], the pest or weed control at 125 g/ha (in the experiment with Kochia (Kochia scoparia) (setting [5]); in experiment [1] (setting [6]); in experiment [2] (setting [8]); in experiment [3] (setting [9]); in experiment [4] (setting [10])) was 0% in each case. For the same molecule, the pest or weed control at 500 g/ha (with Kochia (Kochia scoparia) (setting [11]); in experiment [1] (setting [7]); in experiment [2] (setting [15]); in experiment [3] (setting [17]); in experiment [4] (setting [19])) was 0% each time.
As to `Cc1c(F)cccc1NC(=O)[C@H]1C(=O)NC[C@@H]1c1cccc(C(F)(F)F)c1` [Compound 826], the pest or weed control at 125 g/ha came out at 70% with Kochia (Kochia scoparia) (setting [11]); 90% in experiment [1] (setting [13]); 100% in experiment [2] (setting [15]); 20% in experiment [3] (setting [17]); 70% in experiment [4] (setting [19]). Moreover, the pest or weed control at 500 g/ha is 90% in the experiment on Kochia (Kochia scoparia) (setting [12]); 100% in experiment [1] (setting [14]); 100% in experiment [2] (setting [16]); 80% in experiment [3] (setting [18]); 80% in experiment [4] (setting [20]).
Take `O=C1NC[C@H](c2ccc3c(c2)CCCO3)[C@H]1C(=O)Nc1ccccc1F` [Compound 885]: the pest or weed control at 125 g/ha is 0% with Kochia (Kochia scoparia) (setting [11]); 70% in experiment [1] (setting [13]); 50% in experiment [2] (setting [15]); 0% in experiment [3] (setting [17]); 0% in experiment [4] (setting [19]). Also, the pest or weed control at 500 g/ha in the experiment with Kochia (Kochia scoparia) (setting [12]) came to 0%; in experiment [1] (setting [14]), 90%; in experiment [2] (setting [16]), 80%; in experiment [3] (setting [18]) it was 0%; in experiment [4] (setting [20]), 20%.
